Laboratory results: patent US20250177366A1, “COMPOSITIONS AND METHODS FOR ALLEVIATING PAIN AND REDUCING ADVERSIVENESS OF STIMULI” (UNIVERSITY OF WASHINGTON, priority 2021, published 2025)

Columns and labels:
[1] = tested on: larval zebrafish; test: Chemical attraction/aversion assay with the test chemical itself as source (inherent attractiveness); format: in vivo, Zebrafish (Danio rerio)
Description: To confirm that AS1 itself was not attractive, the chemical attraction/aversion assay was used. […] Since the assay was modified to accommodate the inability to dissolve SKF into agarose at high concentrations (see Materials and Methods), the inherent attractiveness of AS1 was re-tested using this new format.
Chemical attraction/aversion assays. The agarose attraction/aversion assay was adapted from previously described experiments (Jordi et al., Sci. Adv. 2018; 4:1-15). For the AITC aversion assay, AITC and DMSO were added to molten 0.8% agarose to achieve a final concentration of 100 mM AITC and 2% DMSO. For the AS1 attraction/aversion assay, AS1 and DMSO were added to 0.8% molten agar to achieve final concentrations of 50 mM and 2%, respectively. To construct the test chambers, the lids of 10×10 cm square petri dishes (insert cat #and company) were lined on four sides with either the test (chemical-containing) or plain agarose (300 μL per side) and allowed to solidify. For all experiments, 30-40 randomly selected 6 dpf zebrafish were caught with a 10 mL pipette pump (Bel-Air Products, cat #: 13683C) equipped with a glass wide-bored Pasteur pipet (Fisher Scientific, cat #: 22-037-540) and deposited into a standard 10 cm diameter petri dish (Fisher Scientific, cat #: 07-202-031). As much E2 media as possible was carefully removed using the same pipette. For single incubation experiments, 30 mL of 1× solutions of the control or test chemical was added to each petri dish, and fish were incubated for 10 minutes at 28.5° C. For double incubation experiments, 15 mL of 1× solutions containing control (DMSO) or test chemicals was added to the larvae-containing petri dish. […] Swimming behavior was immediately recorded for 20 minutes using the same high-definition camcorder in the thermal preference assays.
For the SKF attraction/aversion assay, custom 10 cm×10 cm plates using clear resin (Formlabs, cat #: RS-F2-GPCL-04) and a Form 3+3D printer (Formlabs, cat #: PKG-F3-WSVC-BASIC) were designed. […] Swimming behavior was then recorded for 20 minutes. […]

[2] = tested on: trigeminal neurons; test: CaMPARI neuronal activity assay; format: in vivo, Zebrafish (Danio rerio); settings: 5 μM AS1; 28.5° C. or 37.5° C.
Description: Brain regions associated with dopaminergic circuitry are specifically activated in the concurrent presence of AS1 and noxious stimuli. It was next sought to determine in an unbiased manner where in the zebrafish nervous system AS1 was exerting its effects by examining neuronal activity in the context of noxious stimuli. […] Many analgesics can act upon multiple different levels of pain transduction circuitry. For example, MORs can be found upon peripheral somatosensory neurons, spinal cord neurons, and numerous neuronal populations in the brain, and both exogenous and endogenous opioids can modulate the activity of any of these neurons (Corder et al., Annu. Rev. Neurosci. 2018; 41: 453-473). To investigate whether peripheral somatosensory neurons were also influenced by AS1, a neuronal activity assay upon transgenic zebrafish expressing the genetically-encoded calcium indicator CaMPARI in all neurons was performed. This fluorescent protein permanently photoconverts from green to red in the presence of a 405 nm light and high calcium (a proxy for neuronal activity), allowing “snapshots” of neuronal activity at a single time point (Fosque et al., Science. 2015; 347(6223):755-760). Fish were exposed to conditions of 28.5° C. or 37.5° C. with or without AS1 in the presence of a blue light, and then the trigeminal ganglia (TG) were surveyed for photoconverted neurons. […]

[3] = tested on: T1, 5-HT2a serotonin receptor (Homo sapiens); test: PDSP radioligand binding assay; settings: PDSP screen
T1 construct: Psychoactive Drug Screening Program (PDSP)
Protocol: (§1) To further seek out the molecular target(s) of AS1, the resources of the Psychoactive Drug Screening Program (PDSP) (Besnard et al., Nature. 2012; 492:215-220) were utilized. […] While not being limited to mechanism or theory, to verify whether these receptors were involved in mediating the effects of AS1, the thermal preference assay following incubation in drugs that specifically acted upon these receptors was employed. […] Nor did treatment with the 5-HT2 s antagonist LY266097 replicate or reverse the effects of AS1 (FIG. 6). Incubation in either the specific sigma-1 receptor agonist (PRE-084) or antagonist (BD1063) similarly yielded no effects (FIG. 6).

[4] = molecular target: T2, sigma-1 receptor (Homo sapiens, UniProt Q99720); test: PDSP radioligand binding assay; settings: PDSP screen
T2 construct: Psychoactive Drug Screening Program (PDSP)
Protocol: as §1

T1 sequence (P41595 whole entry): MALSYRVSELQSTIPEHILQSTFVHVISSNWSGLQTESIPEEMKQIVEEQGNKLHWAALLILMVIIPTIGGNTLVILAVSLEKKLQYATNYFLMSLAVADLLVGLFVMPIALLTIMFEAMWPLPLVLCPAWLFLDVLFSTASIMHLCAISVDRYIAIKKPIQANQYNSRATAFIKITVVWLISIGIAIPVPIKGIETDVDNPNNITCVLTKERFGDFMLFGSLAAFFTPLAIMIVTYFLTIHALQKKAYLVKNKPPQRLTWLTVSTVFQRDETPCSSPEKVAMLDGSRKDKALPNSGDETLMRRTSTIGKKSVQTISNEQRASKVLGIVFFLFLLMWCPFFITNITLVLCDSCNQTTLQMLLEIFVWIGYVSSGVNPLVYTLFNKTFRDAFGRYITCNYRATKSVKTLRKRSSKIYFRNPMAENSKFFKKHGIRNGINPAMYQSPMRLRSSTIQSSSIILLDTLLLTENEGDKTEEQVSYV
T2 sequence (Q99720 whole entry, species assumed): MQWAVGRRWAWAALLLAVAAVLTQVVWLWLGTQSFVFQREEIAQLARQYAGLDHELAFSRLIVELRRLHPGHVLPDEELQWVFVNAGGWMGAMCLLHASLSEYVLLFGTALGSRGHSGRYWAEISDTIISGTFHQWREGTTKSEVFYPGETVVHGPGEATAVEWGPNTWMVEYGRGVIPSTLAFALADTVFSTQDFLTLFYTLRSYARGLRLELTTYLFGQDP

radioligand binding interaction [3]: potentially weak interactions | radioligand binding interaction [4]: potentially weak interactions
SMILES: CC(C)c1ccc(C(=O)Nc2ccncc2)cc1 [AS1, 4-propan-2-yl-N-pyridin-4-ylbenzamide]
inherent attractiveness of chemical infused into agarose ([1]; 50 mM AS1 in agarose on one side of square arena vs control agarose): did not approach it in a way that was appreciably different from control agarose | inherent attractiveness of chemical deposited into trough ([1]; 2 mL in trough of 3D-printed arena, SKF 25 μM, AS1 10 μM-1 mM): neutral or mildly aversive | Number of photoconverted trigeminal neurons, AS1-treated vs control [2]: No significant difference
